Source: patent EP1900377A1, “Inhibitors of GPR87 for cancer therapy” (Boehringer Ingelheim International GmbH, priority 2006, dated 2008)

Tested on: HN5 cells
Test: Rescue experiment: antibody pre-incubated with GPR87 N-terminal peptide
Format: cell-based, human
Conditions: 50 ug/ml antibody, increasing amounts of peptide, Fig. 7B
Description: Antibody targeting of hGPR87 on living cells is performed as follows: For antibody applications on living HN5 cells, a rabbit anti-hGPR87, directed against the N-terminus of hGPR87 (Novus Biologicals) is used (in Fig. 7A: N-term). HN5 cells are seeded (75000/6-well and 3000/96-well) the day prior to the antibody treatment. The antibody is used at a concentration of 50 ug/ml in medium without serum. 48 h after antibody addition the cells are either lysed for western blot analysis or analysed by AlamarBlue staining. Briefly, 10 ul of AlamarBlue reagent (Biosource, Camarillo USA/CA) are added to 100 ul medium and incubated until a change in color can be recognized (~6 hours). As a control, 50ug/ml antibody targeting C-terminal domain of human GPR87 is used (in Fig. 7A: C-term). Since antibodies are dissolved in PBS containing 0.01 %sodium azide, 0.01% sodium azide in PBS is added to the cells as a control to exclude toxic side effects (SA ctrl in Fig. 7A).
To determine the specificity of the anti-GPR87 antibody recognizing the N-terminus, in a so-called "rescue experiment", a peptide covering the first 46 amino acids of SEQ ID NO:2, is added. (The amounts used are 50 ug/ml of antibody and increasing amounts of GPR87 N-terminal peptide). […] The reversibility of the effects (proliferation and viability) correlates with the concentration of the blocking peptide (Fig. 7B).

GPR87 N-terminal peptide: a peptide covering the first 46 amino acids of SEQ ID NO:2 (MGFNLTLAKLPNNELHGQESHNSGNRSDGPGKNTTLHNEFDTIVLP)
reversal of the pro-apoptotic, anti-proliferative effect of the antibody: can be reversed
